Data as given in PMC6941654, “Glucosyltransferase CsUGT78A14 Regulates Flavonols Accumulation and Reactive Oxygen Species Scavenging in Response to Cold Stress in Camellia sinensis” (Frontiers in Plant Science, 2019).

Target: T1, CsUGT78A14-1 (Camellia sinensis, UniProt A0A109P632)
T1 construct: gene UGT78A14; Ala438 allele
Test: UDP-Glo glycosyltransferase assay, steady-state kinetics
Type: biochemical
Details: co-substrate UDP-glucose (Glc row), donor fixed at 100 μM; acceptor varied 1-500 μM; optimized pH and temperature
Excerpt: UDP-Glo glycosyltransferase assay, steady-state kinetics on CsUGT78A14-1

T1 sequence (A0A109P632 entry or part of it): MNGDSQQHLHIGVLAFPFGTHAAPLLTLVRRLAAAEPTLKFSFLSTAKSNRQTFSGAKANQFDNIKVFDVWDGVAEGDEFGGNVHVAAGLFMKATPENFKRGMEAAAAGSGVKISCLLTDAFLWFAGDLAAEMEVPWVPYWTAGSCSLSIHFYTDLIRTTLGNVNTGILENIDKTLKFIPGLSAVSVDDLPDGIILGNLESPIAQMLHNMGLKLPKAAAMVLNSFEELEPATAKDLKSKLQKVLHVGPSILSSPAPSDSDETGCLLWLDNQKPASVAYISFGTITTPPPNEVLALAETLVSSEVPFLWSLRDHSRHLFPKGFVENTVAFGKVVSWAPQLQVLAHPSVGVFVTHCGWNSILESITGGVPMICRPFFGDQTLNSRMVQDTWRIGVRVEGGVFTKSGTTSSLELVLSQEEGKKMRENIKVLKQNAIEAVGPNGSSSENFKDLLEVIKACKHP

Km: 27.1 µM
Compound: O=c1c(O)c(-c2ccc(O)cc2)oc2cc(O)cc(O)c12 [kaempferol]
